Results on 1 compound are retold here after article PMC5635289, “Differential Effects of Angelicin Analogues on NF-κB Activity and IL-8 Gene Expression in Cystic Fibrosis IB3-1 Cells” (Mediators of Inflammation, 2017).

pIC50: −log10 of the molar value.

In one test the test system is IB3-1 cells. In words: Cell proliferation assay on IB3-1 cells. In kind it is cell-based. As to conditions: Homo sapiens, cell number/ml after 48 h of treatment. As to the method: Monolayers of 60% confluent IB3-1 cells were seeded in 24- or 12-well plates in LHC-8 medium in the presence of 5% FBS. After 24 h, TMA derivatives were added at serial dilutions and incubated for further 2-3 days. The effects of compounds (TMA derivatives) on the cell proliferation were analyzed as elsewhere described. A first analysis was performed with serial dilutions to obtain 50 μM, 200 μM, and 800 μM solutions. In order to determine IC50 values, the following concentrations were used 12.5, 25, 50, 100, 200, and 800 μM. In order to prepare the cells for counting, they were washed with PBS 1X and detached with trypsin/EDTA. Cells were suspended in physiological solution and counted with a Z2 Coulter Counter (Coulter Electronics, Hialeah, FL, USA). The cell number/ml was determined as IC50 after 2 days of culture, when untreated cells are in log phase of cell growth.
In order to obtain preliminary information on the biological properties of TMA derivatives, their effects on cell growth were examined on IB3-1 cell line, excellent biological model to study new potential anti-inflammatory molecules. The use of this cell line to study the expression of proinflammatory molecules under a variety of stimuli is well established. Monolayers of 60% confluent IB3-1 cells were seeded in 12-well plate in LHC-8 medium with 5% FBS. After 24 h, compounds were added at different concentrations and the cell number/ml was determined after further 48 h of culture.

In the next test the test system is IL-8 mRNA. Put plainly: RT-qPCR quantification of IL-8 mRNA in TNF-α-induced IB3-1 cells. Particulars: Homo sapiens, IB3-1, 24 h, TNF-α-induced IB3-1 cells, RT-qPCR, na = not active at the used concentrations. It counts as cell-based, human. As for the experimental part:
Monolayers of 60% confluent IB3-1 cells were seeded in 6- or 12-well plates in LHC-8 medium in the presence of 5% FBS. After 24 h, pure derivatives were added, 5 h before stimulation with TNF-α 80 ng/ml (ORF Genetics, Kopavogur, Iceland), and incubated for a further 24 h. Total RNA was extracted using TRIzol Reagent (Sigma-Aldrich, St. Louis, MO) following the manufacturer's instructions. Reverse transcription (RT) was performed using Reverse Transcription System kit (Promega, Madison, WI): 1 μg of total RNA was reverse transcribed in the presence of 5 mM MgCl2, 1X reverse transcription buffer (10 mM Tris-HCl, 50 mM KCl, and 0.1% Triton X-100), 1 mM each dNTPs, 20 U recombinant Rnasin Ribonuclease Inhibitor, 15 U AMV Reverse Transcriptase, and 0.5 μg oligo(dT)15 primers in a total volume of 20 μl for 10 min at 70°C and 60 min at 42°C. The resulting cDNA was quantified by relative quantitative real-time PCR (real-time qPCR). For real-time qPCR, 1 μl of cDNA was used for each SYBR Green reaction to quantify the relative expression of IL-8. Each 25 μl of total reaction volume contained 1 μl of cDNA, 10 pmol of primers, 1 iQTM SYBR Green Supermix (Bio-Rad Laboratories Inc., Hercules, CA). Real-time PCRs were performed for a total of 40 cycles (denaturation, 95°C for 10 s; annealing, 68°C for 30 s for IL-8, 65°C for 30 s for IL-6; elongation, 72°C for 60 s) using an iCycler IQ5 (Bio-Rad Laboratories Inc., Hercules, CA). Primer sequences were as follows: IL-8 forward: 5′-GTGCAGTTTTGCCAAGGAGT-3′ and IL-8 reverse: 5′-TTATGAATTCTCAGCCCTCTTCAAAAACTTCTC-3′. The relative proportions of each amplified template were determined utilizing the threshold cycle (CT) value for each performed PCR. The DDCt method was used to compare gene expression data. Each sample was quantified in duplicate. Changes in mRNA expression level were calculated following normalization with the GAPDH calibrator gene (housekeeping gene) and expressed as fold change over untreated samples [24]. Duplicates of negative controls (no template cDNA) were also run with every experimental plate to assess specificity and indicate potential contamination.
With the aim to study the effective anti-inflammatory properties of these new psoralen derivatives, we decided to further characterize the TMA derivatives for their potential activities on the expression of IL-8 gene, known to be involved in the lung inflammatory process in CF. […] More specifically, we were first interested in identifying compounds with low antiproliferative activity, but effective in downmodulating inflammatory gene expression without achieving a full suppression of these genes. We therefore employed IB3-1 cystic fibrosis cells, incubated for 5 h with two concentrations (1 μM and 10 μM) of selected compounds, and then treated with TNF-α ([…]). In the IB3-1 cystic fibrosis cellular model, NF-κB-dependent genes, including the gene encoding for the proinflammatory protein IL-8, generally are activated following infection with P. aeruginosa or treatment with TNF-α or IL-1β [26, 28, 31]. This feature is very important in the pathophysiology of CF, since several clinical complications are caused by exacerbation of this inflammatory response. After 1 day of incubation, cellular RNA was isolated for RT-qPCR analysis. All the TMA analogues found to be active in inhibiting NF-κB/DNA interactions were analyzed for their effects on inhibition of TNF-α-induced accumulation of IL-8 mRNA.
A general note: Quantitative PCR measures a nucleic acid by following its amplification.

Regarding `Cc1oc2c(C)cc3c(C)cc(=O)oc3c2c1C` [Compound 1], the pIC50 (usually −log10 of the IC50, conventionally taken in molar units) in the test on IB3-1 cells is < 3.10. For the same compound, the inhibition (usually the relative decrease from the control value, in per cent) at 1 µM in the test on IL-8 mRNA (1 μM compound) came out at 57%. Besides, in the test with IL-8 mRNA (10 μM compound), the inhibition at 10 µM was 56%.
